Read-outs that look alike come from different tables or passages of the source.
Target: T1, thymidine phosphorylase/PD-ECGF (E. coli) (Escherichia coli, UniProt P07650)
T1 construct: purchased
Assay: Thymidine phosphorylase inhibition assay (absorbance at 290 nm)
Type: biochemical
Conditions: for IC50: Table 1, triplicate; for thymidine phosphorylase inhibition, result in words: compared with standard 7-Deazaxanthine
Procedure: Since human TP is not easy to obtain, we used commercially available recombinant E. coli TP. The primary sequence of TP is frequently preserved throughout evolution as mammalian TP is reported to share 39% sequence resemblance with the TP of E. coli. The mammalian enzyme also shared up to 70% resemblance with the active site residues, and three-dimensional structure of E. coli TP enzyme. The thymidine phosphorylase/PD-ECGF (E. coli) activity was determined by measuring the absorbance at 290 nm spectrophotometrically. The method was described in [50, 51]. In brief, the total reaction mixture of 200 µL contained 145 µL of potassium phosphate buffer (pH 7.4), 30 µL of enzyme (human and E. coli) at concentration 0.05 and 0.002 U, respectively, were incubated with 5 µL of test materials for 10 min at 25 °C in a microplate reader. After incubation, a pre-read at 290 nm was taken to deduce the absorbance of substrate particles. The substrate (20 µL, 1.5 mM), dissolved in potassium phosphate buffer, was immediately added to the plate and continuously read after 10, 20, and 30 min in a microplate reader (SpectraMax, Molecular Devices, CA, USA). All assays were performed in triplicate.
Reactions for above mentioned biological activities were carried out in triplicate. Results were then processed using SoftMax Pro 4.8 software (Molecular Devices, San Jose, CA, USA) and then by Microsoft Excel. The percent inhibition for above mentioned biological activities was calculated by following formula:Percent Inhibition = 100 − (ODtest compound/ODcontrol) × 100(1)

T1 sequence (P07650 whole entry): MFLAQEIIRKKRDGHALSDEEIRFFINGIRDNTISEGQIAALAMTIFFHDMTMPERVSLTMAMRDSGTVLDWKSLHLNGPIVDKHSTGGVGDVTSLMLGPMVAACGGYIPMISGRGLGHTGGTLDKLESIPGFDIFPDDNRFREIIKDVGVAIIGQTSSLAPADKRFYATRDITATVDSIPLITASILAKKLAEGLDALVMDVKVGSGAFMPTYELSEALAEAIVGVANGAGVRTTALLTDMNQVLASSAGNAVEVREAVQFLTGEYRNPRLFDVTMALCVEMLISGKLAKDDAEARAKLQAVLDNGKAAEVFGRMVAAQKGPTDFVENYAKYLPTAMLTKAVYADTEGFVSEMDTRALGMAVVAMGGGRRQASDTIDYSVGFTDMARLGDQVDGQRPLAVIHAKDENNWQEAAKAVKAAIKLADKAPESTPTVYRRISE

| Structure (SMILES) | IC50 (read-out: IC50 (µM ± SEM)) [µM] | thymidine phosphorylase inhibition, result in words | IC50 (read-out: IC50 (mM ± SEM)) [µM] |
| --- | --- | --- | --- |
| Fc1ccccc1-c1csc2nnc(-c3cnc4ccccc4n3)n12 [Compound 1, 5-(2-flourophenyl)-3(Quinoxalin-2yl)thiazolo[2,3-c][1,2,4]triazole] | 13.6 ± 0.4 | outstanding inhibition | – |
| Fc1cccc(-c2csc3nnc(-c4cnc5ccccc5n4)n23)c1 [Compound 2, 5-(3-flourophenyl)-3(Quinoxalin-2yl)thiazolo[2,3-c][1,2,4]triazole] | 26.1 ± 0.7 | outstanding inhibition | – |
| Fc1ccc(-c2csc3nnc(-c4cnc5ccccc5n4)n23)cc1 [Compound 3, 5-(4-flourophenyl)-3(Quinoxalin-2yl)thiazolo[2,3-c][1,2,4]triazole] | 18.1 ± 0.5 | outstanding inhibition | – |
| Clc1ccccc1-c1csc2nnc(-c3cnc4ccccc4n3)n12 [Compound 4, 5-(2-chlorophenyl)-3(Quinoxalin-2yl)thiazolo[2,3-c][1,2,4]triazole] | 27.4 ± 0.6 | outstanding inhibition | – |
| Clc1cccc(-c2csc3nnc(-c4cnc5ccccc5n4)n23)c1 [Compound 5, 5-(3-chlorophenyl)-3(Quinoxalin-2yl)thiazolo[2,3-c][1,2,4]triazole] | 33.4 ± 0.8 | outstanding inhibition | – |
| Clc1ccc(-c2csc3nnc(-c4cnc5ccccc5n4)n23)cc1 [Compound 6, 5-(4-chlorophenyl)-3(Quinoxalin-2yl)thiazolo[2,3-c][1,2,4]triazole] | 24.4 ± 0.6 | outstanding inhibition | – |
| O=[N+]([O-])c1ccccc1-c1csc2nnc(-c3cnc4ccccc4n3)n12 [Compound 7, 5-(2-nitrophenyl)-3(Quinoxalin-2yl)thiazolo[2,3-c][1,2,4]triazole] | 34.7 ± 0.8 | outstanding inhibition | – |
| O=[N+]([O-])c1ccc(-c2csc3nnc(-c4cnc5ccccc5n4)n23)cc1 [Compound 8, 5-(4-nitrophenyl)-3(Quinoxalin-2yl)thiazolo[2,3-c][1,2,4]triazole] | 47.5 ± 0.9 | moderate inhibition | – |
| Cc1ccccc1-c1csc2nnc(-c3cnc4ccccc4n3)n12 [Compound 9, 3-(quinoxalin-2-yl)-5-o-tolylthiazolo[2,3-c][1,2,4]triazole] | 56.4 ± 1.2 | moderate inhibition | – |
| Cc1cccc(-c2csc3nnc(-c4cnc5ccccc5n4)n23)c1 [Compound 10, 3-(quinoxalin-2-yl)-5-m-tolylthiazolo[2,3-c][1,2,4]triazole] | – | inactive | – |
| Cc1ccc(-c2csc3nnc(-c4cnc5ccccc5n4)n23)cc1 [Compound 11, 3-(quinoxalin-2-yl)-5-p-tolylthiazolo[2,3-c][1,2,4]triazole] | – | inactive | – |
| Oc1cccc(-c2csc3nnc(-c4cnc5ccccc5n4)n23)c1 [Compound 12, 3-(3-(quinoxalin-2-yl)thiazolo[2,3-c][1,2,4]triazol-5-yl)phenol] | 33.2 ± 0.75 | outstanding inhibition | – |
| Oc1ccc(-c2csc3nnc(-c4cnc5ccccc5n4)n23)cc1 [Compound 13, 4-(3-(quinoxalin-2-yl)thiazolo[2,3-c][1,2,4]triazol-5-yl)phenol] | 18.3 ± 0.55 | outstanding inhibition | – |
| Oc1ccc(-c2csc3nnc(-c4cnc5ccccc5n4)n23)c(O)c1 [Compound 14, 4-(3-(quinoxalin-2-yl)thiazolo[2,3-c][1,2,4]triazol-5-yl)benzene-1,3-diol] | – | outstanding inhibition | 13.2 ± 0.4 |
| Oc1ccc(O)c(-c2csc3nnc(-c4cnc5ccccc5n4)n23)c1 [Compound 15, 2-(3-(quinoxalin-2-yl)thiazolo[2,3-c][1,2,4]triazol-5-yl)benzene-1,4-diol] | – | outstanding inhibition | 15.2 ± 0.5 |
| Oc1ccc(-c2csc3nnc(-c4cnc5ccccc5n4)n23)cc1O [Compound 16, 4-(3-(quinoxalin-2-yl)thiazolo[2,3-c][1,2,4]triazol-5-yl)benzene-1,2-diol] | – | outstanding inhibition | 3.5 ± 0.2 |
| COc1ccc(-c2csc3nnc(-c4cnc5ccccc5n4)n23)c(O)c1 [Compound 17, 5-methoxy-2-(3-(quinoxalin-2-yl)thiazolo[2,3-c][1,2,4]triazol-5-yl)phenol] | – | outstanding inhibition | 24.2 ± 0.7 |
| COc1ccc(-c2csc3nnc(-c4cnc5ccccc5n4)n23)cc1O [Compound 18, 2-methoxy-5-(3-(quinoxalin-2-yl)thiazolo[2,3-c][1,2,4]triazol-5-yl)phenol] | – | outstanding inhibition | 16.9 ± 0.6 |
| COc1cccc(-c2csc3nnc(-c4cnc5ccccc5n4)n23)c1 [Compound 19, 5-(3-methoxyphenyl)-3-(quinoxalin-2-yl)thiazolo[2,3-c][1,2,4]triazole] | – | inactive | – |
| COc1ccc(-c2csc3nnc(-c4cnc5ccccc5n4)n23)cc1 [Compound 20, 5-(4-methoxyphenyl)-3-(quinoxalin-2-yl)thiazolo[2,3-c][1,2,4]triazole] | – | inactive | – |
| COc1ccc(O)c(-c2csc3nnc(-c4cnc5ccccc5n4)n23)c1 [Compound 21, 4-methoxy-2-(3-(quinoxalin-2-yl)thiazolo[2,3-c][1,2,4]triazol-5-yl)phenol] | – | outstanding inhibition | 26.2 ± 0.5 |
| c1cncc(-c2csc3nnc(-c4cnc5ccccc5n4)n23)c1 [Compound 22, 5-(pyridin-3-yl)-3-(quinoxalin-2-yl)thiazolo[2,3-c][1,2,4]triazole] | – | inactive | – |
| c1ccc2nc(-c3nnc4scc(-c5ccncc5)n34)cnc2c1 [Compound 23, 5-(pyridin-4-yl)-3-(quinoxalin-2-yl)thiazolo[2,3-c][1,2,4]triazole] | – | inactive | – |
| Oc1ccccc1-c1csc2nnc(-c3cnc4ccccc4n3)n12 [Compound 24, 2-(3-(quinoxalin-2-yl)thiazolo[2,3-c][1,2,4]triazol-5-yl)phenol] | – | outstanding inhibition | 13.1 ± 0.3 |
| Oc1cccc(-c2csc3nnc(-c4cnc5ccccc5n4)n23)c1O [Compound 25, 3-(3-(quinoxalin-2-yl)thiazolo[2,3-c][1,2,4]triazol-5-yl)benzene-1,2-diol] | – | – | 3.2 ± 0.1 |
